Data from patent publication US20230112800A1 (priority 2021, published 2023).
Where two headings read alike, the source gives them in different places.

Legend:
[1] = rats, niclosamide dose of 10 mg/kg by oral gavage, n = 5
[2] = CD-1 mice, 500 mg/kg suspended in 0.5% Methocel A4M
COVID-19 = conditions: in-vitro isolate COVID-19, Vero E6 cells; cited from earlier work
SARS-CoV = conditions: Vero cells infected by SARS-CoV (2002 pandemic); cited from earlier work

O=C(Nc1ccc([N+](=O)[O-])cc1Cl)c1cc(Cl)ccc1O
AUCInf [1]: 188 (84) h*ng/mL
AUC_%Extrap_obs [1]: 8.4 (7.0) %
AUClast [1]: 168 (64) h*ng/mL
AUClast/D [1]: 16.8 (6.4) h*mg/mL
Cmax [1]: 48.3 (20.6) ng/mL
MRTInf_obs [1]: 3.56 (0.70) h
T1/2 [1]: 1.00 (0.30) h
Tmax [1]: 3.60 (0.89) h

O=C(Nc1ccc([N+](=O)[O-])cc1Cl)c1cc(Cl)ccc1O [Crystalline Nic]
AUC0-last [2]: 1454.6 ng·h/mL
Cmax [2]: 661.7 ng/mL
Tmax [2]: 30 min

CCN(CC)CCCC(C)Nc1ccnc2cc(Cl)ccc12 (stereo not shown) [chloroquine]
IC50 (COVID-19): 1130 nM
IC50 (SARS-CoV): 4400 nM
